# Non-standard residues stand in square brackets, D forms with d. Residues, ends and D or L forms follow the SMILES beside them. ξ: configuration not given here. *: point of attachment. ξF = NC(Cc1ccccc1)C(=O)O; Cbz = O=C(OCc1ccccc1)*; CF3 = FC(F)(F)*
# Key:
# SARS-CoV-2 3CLpro = SARS-CoV-2 3CLpro (Severe acute respiratory syndrome coronavirus 2, UniProt P0DTD1); conditions: SARS-CoV pIC50 multiplied by similarity index (SI), training set compounds
# SARS-CoV 3CLpro [1] = assay type: biochemical; conditions: activity class by pIC50 threshold 6
# SARS-CoV 3CLpro [2] = conditions: SARS-CoV 3CLpro inhibitors (training set), ref: per compound, cited from earlier work; for pIC50: from literature IC50; for IC50: literature values
smiles,measurement,setting,value
C=C[C@@]1(C)CC[C@H]2C(=CC[C@@H]3[C@]2(C)CCC[C@@]3(C)C(=O)O)C1 [CMP133],SI*pIC50,SARS-CoV-2 3CLpro,3.699
same,Inact.(<6)/Act.(>=6),SARS-CoV 3CLpro [1],Inact. (Inact.(<6))
same,pIC50,SARS-CoV 3CLpro [2],3.547
same,IC50,SARS-CoV 3CLpro [2],284 µM
O=c1cc(-c2ccc(O)cc2)oc2cc(O)cc(O)c12 [CMP152],SI*pIC50,SARS-CoV-2 3CLpro,3.704
same,Inact.(<6)/Act.(>=6),SARS-CoV 3CLpro [1],Inact. (Inact.(<6))
same,pIC50,SARS-CoV 3CLpro [2],3.552
same,IC50,SARS-CoV 3CLpro [2],281 µM
O=C1C(=O)N(c2cccc3ccccc23)c2ccc(I)cc21 [CMP117],SI*pIC50,SARS-CoV-2 3CLpro,6.11
same,Inact.(<6)/Act.(>=6),SARS-CoV 3CLpro [1],Inact. (Inact.(<6))
same,pIC50,SARS-CoV 3CLpro [2],5.959
same,IC50,SARS-CoV 3CLpro [2],1.1 µM
Cc1c(O)c(O)cc2c1CC=C1[C@@]2(C)CC[C@@]2(C)[C@@H]3C[C@](C)(C(=O)O)CC[C@]3(C)CC[C@]12C [CMP161],SI*pIC50,SARS-CoV-2 3CLpro,4.816
same,Inact.(<6)/Act.(>=6),SARS-CoV 3CLpro [1],Inact. (Inact.(<6))
same,pIC50,SARS-CoV 3CLpro [2],4.664
same,IC50,SARS-CoV 3CLpro [2],21.7 µM
COc1cc(O)c2c(=O)cc(-c3ccc(OC)c(-c4c(O)cc(O)c5c(=O)cc(-c6ccc(O)cc6)oc45)c3)oc2c1 [CMP150],SI*pIC50,SARS-CoV-2 3CLpro,4.6468
same,Inact.(<6)/Act.(>=6),SARS-CoV 3CLpro [1],Inact. (Inact.(<6))
same,pIC50,SARS-CoV 3CLpro [2],4.495
same,IC50,SARS-CoV 3CLpro [2],32 µM
CC(=O)n1nc(SSc2ccccc2[N+](=O)[O-])nc1C [CMP120],SI*pIC50,SARS-CoV-2 3CLpro,5.656
same,Inact.(<6)/Act.(>=6),SARS-CoV 3CLpro [1],Inact. (Inact.(<6))
same,pIC50,SARS-CoV 3CLpro [2],5.504
same,IC50,SARS-CoV 3CLpro [2],3.13 µM
CC(C)C[C@H](NC(=O)[C@@H](NC(=O)OCc1ccccc1)C(C)C)C(=O)N[C@@H](C[C@@H]1CCNC1=O)C(=O)c1nccs1 [CMP183],SI*pIC50,SARS-CoV-2 3CLpro,5.174
same,Inact.(<6)/Act.(>=6),SARS-CoV 3CLpro [1],Inact. (Inact.(<6))
same,pIC50,SARS-CoV 3CLpro [2],5.022
same,IC50,SARS-CoV 3CLpro [2],9.5 µM
CCOC(=O)/C=C/[C@H](C[C@@H]1CCNC1=O)NC(=O)[C@H](Cc1ccccc1)NC(=O)[C@@H](NC(=O)[C@H](CO)NC(=O)OC(C)(C)C)C(C)C [CMP180],SI*pIC50,SARS-CoV-2 3CLpro,4.976
same,Inact.(<6)/Act.(>=6),SARS-CoV 3CLpro [1],Inact. (Inact.(<6))
same,pIC50,SARS-CoV 3CLpro [2],4.824
same,IC50,SARS-CoV 3CLpro [2],15 µM
O=C(/C=C/c1ccccc1)Nc1ccccc1SC(=O)/C=C/c1ccccc1 [CMP108],SI*pIC50,SARS-CoV-2 3CLpro,6.127
same,Inact.(<6)/Act.(>=6),SARS-CoV 3CLpro [1],Inact. (Inact.(<6))
same,pIC50,SARS-CoV 3CLpro [2],5.975
same,IC50,SARS-CoV 3CLpro [2],1.06 µM
O=C1C=CC(=O)c2cn(Cc3ccccc3)cc21 [CMP111],SI*pIC50,SARS-CoV-2 3CLpro,5.307
same,Inact.(<6)/Act.(>=6),SARS-CoV 3CLpro [1],Inact. (Inact.(<6))
same,pIC50,SARS-CoV 3CLpro [2],5.1549
same,IC50,SARS-CoV 3CLpro [2],7 µM
Cc1coc2c1C(=O)C(=O)c1c-2ccc2c1CCCC2(C)C [CMP130],SI*pIC50,SARS-CoV-2 3CLpro,5.948
same,Inact.(<6)/Act.(>=6),SARS-CoV 3CLpro [1],Inact. (Inact.(<6))
same,pIC50,SARS-CoV 3CLpro [2],5.796
same,IC50,SARS-CoV 3CLpro [2],1.6 µM
O=C(Oc1cncc(Cl)c1)c1cscn1 [CMP166],SI*pIC50,SARS-CoV-2 3CLpro,6.72
same,Inact.(<6)/Act.(>=6),SARS-CoV 3CLpro [1],Act. (Act.(>=6))
same,pIC50,SARS-CoV 3CLpro [2],6.569
same,IC50,SARS-CoV 3CLpro [2],0.27 µM
CC(C)c1cc2c(cc1O)[C@@]1(C)CCC[C@@](C)(CO)[C@@H]1CC2 [CMP173],SI*pIC50,SARS-CoV-2 3CLpro,3.808
same,Inact.(<6)/Act.(>=6),SARS-CoV 3CLpro [1],Inact. (Inact.(<6))
same,pIC50,SARS-CoV 3CLpro [2],3.656
same,IC50,SARS-CoV 3CLpro [2],221 µM
O=C1C(=O)N(Cc2ccccc2)c2ccc(S(=O)(=O)N3CCCCC3)cc21 [CMP176],SI*pIC50,SARS-CoV-2 3CLpro,5.006
same,Inact.(<6)/Act.(>=6),SARS-CoV 3CLpro [1],Inact. (Inact.(<6))
same,pIC50,SARS-CoV 3CLpro [2],4.854
same,IC50,SARS-CoV 3CLpro [2],14 µM
CCCn1c(NCc2ccc(N3N=C(c4ccccc4)CC3c3ccccc3)cc2)nc2ccccc21 (stereo not drawn) [CMP115],SI*pIC50,SARS-CoV-2 3CLpro,5.249
same,Inact.(<6)/Act.(>=6),SARS-CoV 3CLpro [1],Inact. (Inact.(<6))
same,pIC50,SARS-CoV 3CLpro [2],5.097
same,IC50,SARS-CoV 3CLpro [2],8 µM
CCC(C)c1ccc(N(C(=O)c2ccco2)C(C(=O)NC2CCCC2)c2cccnc2)cc1 (stereo not drawn) [CMP144],SI*pIC50,SARS-CoV-2 3CLpro,5.809
same,Inact.(<6)/Act.(>=6),SARS-CoV 3CLpro [1],Inact. (Inact.(<6))
same,pIC50,SARS-CoV 3CLpro [2],5.658
same,IC50,SARS-CoV 3CLpro [2],2.2 µM
CC(C)C1=CC2=CC[C@@H]3[C@](C)(CCC[C@@]3(C)C(=O)O)[C@H]2CC1 [CMP124],SI*pIC50,SARS-CoV-2 3CLpro,3.875
same,Inact.(<6)/Act.(>=6),SARS-CoV 3CLpro [1],Inact. (Inact.(<6))
same,pIC50,SARS-CoV 3CLpro [2],3.723
same,IC50,SARS-CoV 3CLpro [2],189 µM
CCn1c(NCc2ccc(N3N=C(c4ccccc4)CC3c3ccccc3)cc2)nc2ccccc21 (stereo not drawn) [CMP114],SI*pIC50,SARS-CoV-2 3CLpro,5.228
same,Inact.(<6)/Act.(>=6),SARS-CoV 3CLpro [1],Inact. (Inact.(<6))
same,pIC50,SARS-CoV 3CLpro [2],5.076
same,IC50,SARS-CoV 3CLpro [2],8.4 µM
COc1ccccc1/N=C/c1nc(-c2ccccc2)oc1OC(C)=O [CMP113],SI*pIC50,SARS-CoV-2 3CLpro,5.6333
same,Inact.(<6)/Act.(>=6),SARS-CoV 3CLpro [1],Inact. (Inact.(<6))
same,pIC50,SARS-CoV 3CLpro [2],5.481
same,IC50,SARS-CoV 3CLpro [2],3.3 µM
O=c1cc(-c2ccc(O)c(-c3c(O)cc(O)c4c(=O)cc(-c5ccc(O)cc5)oc34)c2)oc2cc(O)cc(O)c12 [CMP154],SI*pIC50,SARS-CoV-2 3CLpro,5.233
same,Inact.(<6)/Act.(>=6),SARS-CoV 3CLpro [1],Inact. (Inact.(<6))
same,pIC50,SARS-CoV 3CLpro [2],5.081
same,IC50,SARS-CoV 3CLpro [2],8.3 µM
CN1C(=O)C(=O)c2cc(S(=O)(=O)N3CCOCC3)ccc21 [CMP149],SI*pIC50,SARS-CoV-2 3CLpro,5.156
same,Inact.(<6)/Act.(>=6),SARS-CoV 3CLpro [1],Inact. (Inact.(<6))
same,pIC50,SARS-CoV 3CLpro [2],5.004
same,IC50,SARS-CoV 3CLpro [2],9.91 µM
CC1=C(C(=O)OCCc2ccccc2)C(c2ccccc2[N+](=O)[O-])C2=C(CCCC2=O)N1 (stereo not drawn) [CMP102],SI*pIC50,SARS-CoV-2 3CLpro,5.754
same,Inact.(<6)/Act.(>=6),SARS-CoV 3CLpro [1],Inact. (Inact.(<6))
same,pIC50,SARS-CoV 3CLpro [2],5.602
same,IC50,SARS-CoV 3CLpro [2],2.5 µM
O=C(O)c1ccc(S(=O)(=O)c2cc(Br)c(O)c(Br)c2)cc1 [CMP138],SI*pIC50,SARS-CoV-2 3CLpro,4.948
same,Inact.(<6)/Act.(>=6),SARS-CoV 3CLpro [1],Inact. (Inact.(<6))
same,pIC50,SARS-CoV 3CLpro [2],4.796
same,IC50,SARS-CoV 3CLpro [2],16 µM
CC(C)c1ccc(N(C(=O)c2ccco2)C(C(=O)NC(C)(C)C)c2cccnc2)cc1 (stereo not drawn) [CMP182],SI*pIC50,SARS-CoV-2 3CLpro,4.7028
same,Inact.(<6)/Act.(>=6),SARS-CoV 3CLpro [1],Inact. (Inact.(<6))
same,pIC50,SARS-CoV 3CLpro [2],4.551
same,IC50,SARS-CoV 3CLpro [2],28.1 µM
CC(C)C[C@H](NC(=O)[C@@H](NC(=O)[C@H](C)NC(=O)OCc1ccccc1)C(C)C)C(=O)NC(Cc1ccccc1)C(=O)C(F)(F)F (stereo partly drawn) [CMP174] (Cbz-AVL[ξF]-CF3),SI*pIC50,SARS-CoV-2 3CLpro,5.152
same,Inact.(<6)/Act.(>=6),SARS-CoV 3CLpro [1],Inact. (Inact.(<6))
same,pIC50,SARS-CoV 3CLpro [2],5
same,IC50,SARS-CoV 3CLpro [2],10 µM
C=CCSc1ccccc1NC(=O)/C=C/c1ccccc1 [CMP106],SI*pIC50,SARS-CoV-2 3CLpro,4.857
same,Inact.(<6)/Act.(>=6),SARS-CoV 3CLpro [1],Inact. (Inact.(<6))
same,pIC50,SARS-CoV 3CLpro [2],4.706
same,IC50,SARS-CoV 3CLpro [2],19.7 µM
NC(=O)c1ccc2c(c1)C(=O)C(=O)N2c1cccc2ccccc12 [CMP118],SI*pIC50,SARS-CoV-2 3CLpro,6.584
same,Inact.(<6)/Act.(>=6),SARS-CoV 3CLpro [1],Act. (Act.(>=6))
same,pIC50,SARS-CoV 3CLpro [2],6.4318
same,IC50,SARS-CoV 3CLpro [2],0.37 µM
O=c1cc(-c2ccc(O)c(O)c2)oc2cc(O)cc(O)c12 [CMP153],SI*pIC50,SARS-CoV-2 3CLpro,4.851
same,Inact.(<6)/Act.(>=6),SARS-CoV 3CLpro [1],Inact. (Inact.(<6))
same,pIC50,SARS-CoV 3CLpro [2],4.699
same,IC50,SARS-CoV 3CLpro [2],20 µM
COC(=O)[C@]1(C)CCC[C@]2(C)c3ccc(C(C)C)cc3CC[C@@H]12 [CMP125],SI*pIC50,SARS-CoV-2 3CLpro,3.836
same,Inact.(<6)/Act.(>=6),SARS-CoV 3CLpro [1],Inact. (Inact.(<6))
same,pIC50,SARS-CoV 3CLpro [2],3.684
same,IC50,SARS-CoV 3CLpro [2],207 µM
Cc1coc2c1C(=O)C(=O)c1c-2ccc2c1CCCC2(C)CO (stereo not drawn) [CMP131],SI*pIC50,SARS-CoV-2 3CLpro,5.122
same,Inact.(<6)/Act.(>=6),SARS-CoV 3CLpro [1],Inact. (Inact.(<6))
same,pIC50,SARS-CoV 3CLpro [2],4.971
same,IC50,SARS-CoV 3CLpro [2],10.7 µM
O=C(Cc1cncc(Cl)c1)c1cccs1 [CMP181],SI*pIC50,SARS-CoV-2 3CLpro,6.453
same,Inact.(<6)/Act.(>=6),SARS-CoV 3CLpro [1],Act. (Act.(>=6))
same,pIC50,SARS-CoV 3CLpro [2],6.301
same,IC50,SARS-CoV 3CLpro [2],0.5 µM
Cc1oc(C(C)(C)C)cc1-c1cc(NS(=O)(=O)c2cccs2)[nH]n1 [CMP136],SI*pIC50,SARS-CoV-2 3CLpro,5.152
same,Inact.(<6)/Act.(>=6),SARS-CoV 3CLpro [1],Inact. (Inact.(<6))
same,pIC50,SARS-CoV 3CLpro [2],5
same,IC50,SARS-CoV 3CLpro [2],10 µM
O=C1C(=O)N(Cc2ccc(C(=O)N3CCCCC3)s2)c2ccc(I)cc21 [CMP100],SI*pIC50,SARS-CoV-2 3CLpro,4.909
same,Inact.(<6)/Act.(>=6),SARS-CoV 3CLpro [1],Inact. (Inact.(<6))
same,pIC50,SARS-CoV 3CLpro [2],4.757
same,IC50,SARS-CoV 3CLpro [2],17.5 µM
